Data from ChEMBL document CHEMBL4831559, “Antitarget Selectivity and Tolerability of Novel Pyrrolo[2,3-d]pyrimidine RET Inhibitors” (ACS Med Chem Lett, 2021).
The source made the active and inactive calls. The rule behind the calls is not given here.

Experiments:
BaF3 [1] = test: cells; details: Mus musculus, BaF3, 48 h
Description: Antiproliferative activity against mouse BaF3 cells assessed as reduction in cell proliferation incubated for 48 hrs by cell proliferation assay

[2] = Clearance in BALB/c mouse at 2 mg/kg, iv measured by LC-MS/MS analysis; assay type: ADME, organism-based; details: in vivo
BaF3 [3] = test: Antitumor activity against mouse KIF5B-RET BaF3 cells xenografted in nude mouse assessed as tumor regression at 60 mg/kg, po qd measured after 14 days; assay type: functional, organism-based; details: time 14.0 day
[4] = molecular target: Proto-oncogene tyrosine-protein kinase receptor Ret (Mus musculus) (UniProt P35546); test: In vivo inhibition of RET phosphorylation in mouse KIF5B-RET BaF3 cells transfected in nude mouse […] at 60 mg/kg, po qd measured after 5 hrs; assay type: functional, organism-based
[5] = fCmax in nude mouse xenografted with KIF5B-RET BaF3 cells xenografted at 60 mg/kg, po qd for 14 days; assay type: ADME, organism-based; details: in vivo, 336 h, time 14 day
[6] = Toxicity in nude mouse transfected with mouse KIF5B-RET BaF3 cells assessed as body weight loss at 10 to 60 mg/kg, po qd measured after 14 days; assay type: organism-based; details: in vivo, 336 h, dose 10-60 mg/kg, time 14 day
[7] = fAUC in nude mouse xenografted with KIF5B-RET BaF3 cells xenografted at 60 mg/kg, po qd for 14 days; assay type: ADME, organism-based; details: in vivo, 336 h, time 14 day
[8] = AUC in nude mouse xenografted with KIF5B-RET BaF3 cells xenografted at 60 mg/kg, po qd for 14 days; assay type: ADME, organism-based; design: time 14 day, dose 60 mg/kg; details: in vivo
[9] = Toxicity in nude mouse transfected with mouse KIF5B-RET BaF3 cells assessed as adverse effect at 10 to 60 mg/kg, po qd measured after 14 days; assay type: organism-based; details: in vivo, 336 h, dose 10-60 mg/kg, time 14 day
[10] = Plasma protein binding in mouse at 5 uM measured after 16 hrs by LC-MS/MS based rapid equilibrium dialysis analysis; assay type: ADME, cell-free; details: read-out: PPB (converted)
[11] = Cmax in nude mouse xenografted with KIF5B-RET BaF3 cells xenografted at 60 mg/kg, po qd for 14 days; assay type: ADME, organism-based; design: route oral, time 14 day, dose 60 mg/kg; details: in vivo
[12] = Cmax in BALB/c mouse at 2 mg/kg, iv measured by LC-MS/MS analysis; assay type: ADME, organism-based; design: route intravenous, dose 2 mg/kg; details: in vivo
[13] = Half life in BALB/c mouse at 2 mg/kg, iv measured by LC-MS/MS analysis; assay type: ADME, organism-based; details: in vivo
[14] = Half life in BALB/c mouse at 10 mg/kg, po measured by LC-MS/MS analysis; assay type: ADME, organism-based; details: in vivo
[15] = Cmax in BALB/c mouse at 10 mg/kg, po measured by LC-MS/MS analysis; assay type: ADME, organism-based; design: route oral, dose 10 mg/kg; details: in vivo
[16] = Volume of distribution at steady state in BALB/c mouse at 2 mg/kg, iv measured by LC-MS/MS analysis; assay type: ADME, organism-based; details: in vivo, read-out: Vdss
[17] = Oral bioavailability in BALB/c mouse at 10 mg/kg measured by LC-MS/MS analysis; assay type: ADME, organism-based; details: in vivo
[18] = AUC in BALB/c mouse at 2 mg/kg, iv measured by LC-MS/MS analysis; assay type: ADME, organism-based; design: dose 2 mg/kg; details: in vivo
[19] = AUC in BALB/c mouse at 10 mg/kg, po measured by LC-MS/MS analysis; assay type: ADME, organism-based; design: dose 10 mg/kg; details: in vivo
Bcr/Abl fusion protein = Bcr/Abl fusion protein (Homo sapiens, UniProt P00519); test: Inhibition of BCR-ABL (unknown origin) expressed in mouse BaF3 cells assessed as reduction in cell proliferation incubated for 48 hrs by cell proliferation assay; assay type: cell-based
Mus musculus [20] = test: Antitumor activity against mouse KIF5B-RET BaF3 cells xenografted in nude mouse assessed as tumor regression at 30 mg/kg, po qd measured after 16 days; assay type: functional, organism-based; details: time 16.0 day
BaF3 [21] = test: Antitumor activity against mouse KIF5B-RET BaF3 cells xenografted in nude mouse assessed as tumor regression at 1 to 10 mg/kg, po qd measured after 16 days; assay type: functional, organism-based; details: dose 1-10 mg/kg, time 16.0 day
[22] = molecular target: T1, Voltage-gated inwardly rectifying potassium channel KCNH2 (Homo sapiens, UniProt Q12809); test: Inhibition of human ERG expressed in CHO cells by manual patch clamp assay; assay type: cell-based
[23] = molecular target: T1, Voltage-gated inwardly rectifying potassium channel KCNH2; test: Displacement of [3H]-dofetilide from human ERG expressed in CHO cell after 90 mins by microbeta liquid scintillation counting method; assay type: cell-based
[24] = fCmax in nude mouse xenografted with KIF5B-RET BaF3 cells xenografted at 10 mg/kg, po qd for 14 days; assay type: ADME, organism-based; details: in vivo, 336 h, time 14 day
[25] = Toxicity in nude mouse transfected with mouse KIF5B-RET BaF3 cells assessed as adverse effect at 30 mg/kg, po qd measured after 14 days; assay type: organism-based; details: in vivo, 336 h, time 14 day
Mus musculus [26] = test: Antitumor activity against mouse KIF5B-RET BaF3 cells xenografted in nude mouse assessed as tumor regression at 10 mg/kg, po qd measured after 16 days; assay type: functional, organism-based; details: time 16.0 day
[27] = fAUC in nude mouse xenografted with KIF5B-RET BaF3 cells xenografted at 10 mg/kg, po qd for 14 days; assay type: ADME, organism-based; details: in vivo, 336 h, time 14 day
[28] = Cmax in nude mouse xenografted with KIF5B-RET BaF3 cells xenografted at 10 mg/kg, po qd for 14 days; assay type: ADME, organism-based; design: route oral, time 14 day, dose 10 mg/kg; details: in vivo
[29] = AUC in nude mouse xenografted with KIF5B-RET BaF3 cells xenografted at 10 mg/kg, po qd for 14 days; assay type: ADME, organism-based; design: time 14 day, dose 10 mg/kg; details: in vivo
BaF3 [30] = details: Mus musculus, dose 10.0 mg/kg, time 21.0 day

T1 sequence (Q12809 whole entry): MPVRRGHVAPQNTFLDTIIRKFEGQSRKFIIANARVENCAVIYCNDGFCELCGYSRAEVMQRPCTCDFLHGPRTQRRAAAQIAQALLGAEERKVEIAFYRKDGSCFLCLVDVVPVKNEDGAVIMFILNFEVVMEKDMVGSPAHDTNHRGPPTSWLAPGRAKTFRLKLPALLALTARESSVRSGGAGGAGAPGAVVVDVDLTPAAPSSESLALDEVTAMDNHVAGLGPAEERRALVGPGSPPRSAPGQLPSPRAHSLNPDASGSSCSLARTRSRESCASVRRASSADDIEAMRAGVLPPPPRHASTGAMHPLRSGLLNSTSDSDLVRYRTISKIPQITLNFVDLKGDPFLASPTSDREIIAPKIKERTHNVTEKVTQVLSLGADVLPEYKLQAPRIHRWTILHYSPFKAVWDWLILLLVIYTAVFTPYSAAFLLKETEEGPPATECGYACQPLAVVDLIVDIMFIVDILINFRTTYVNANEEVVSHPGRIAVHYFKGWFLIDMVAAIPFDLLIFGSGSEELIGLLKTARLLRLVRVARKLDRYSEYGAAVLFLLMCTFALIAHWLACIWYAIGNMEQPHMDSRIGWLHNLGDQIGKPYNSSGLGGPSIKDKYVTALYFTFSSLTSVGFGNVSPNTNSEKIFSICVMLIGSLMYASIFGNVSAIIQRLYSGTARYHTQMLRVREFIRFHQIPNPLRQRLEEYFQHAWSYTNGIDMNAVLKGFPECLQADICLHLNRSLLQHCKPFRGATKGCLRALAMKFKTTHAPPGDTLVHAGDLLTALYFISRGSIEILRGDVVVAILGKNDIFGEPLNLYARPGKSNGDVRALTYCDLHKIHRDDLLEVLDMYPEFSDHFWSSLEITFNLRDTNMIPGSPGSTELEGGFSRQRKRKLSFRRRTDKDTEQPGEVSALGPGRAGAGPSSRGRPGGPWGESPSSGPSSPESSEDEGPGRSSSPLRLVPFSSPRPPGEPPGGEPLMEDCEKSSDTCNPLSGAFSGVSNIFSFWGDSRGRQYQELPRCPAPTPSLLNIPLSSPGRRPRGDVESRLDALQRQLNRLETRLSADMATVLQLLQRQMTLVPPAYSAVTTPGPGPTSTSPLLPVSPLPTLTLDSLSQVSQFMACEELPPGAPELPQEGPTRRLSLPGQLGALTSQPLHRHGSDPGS
Proto-oncogene tyrosine-protein kinase receptor Ret (Mus musculus), sequence (P35546 whole entry): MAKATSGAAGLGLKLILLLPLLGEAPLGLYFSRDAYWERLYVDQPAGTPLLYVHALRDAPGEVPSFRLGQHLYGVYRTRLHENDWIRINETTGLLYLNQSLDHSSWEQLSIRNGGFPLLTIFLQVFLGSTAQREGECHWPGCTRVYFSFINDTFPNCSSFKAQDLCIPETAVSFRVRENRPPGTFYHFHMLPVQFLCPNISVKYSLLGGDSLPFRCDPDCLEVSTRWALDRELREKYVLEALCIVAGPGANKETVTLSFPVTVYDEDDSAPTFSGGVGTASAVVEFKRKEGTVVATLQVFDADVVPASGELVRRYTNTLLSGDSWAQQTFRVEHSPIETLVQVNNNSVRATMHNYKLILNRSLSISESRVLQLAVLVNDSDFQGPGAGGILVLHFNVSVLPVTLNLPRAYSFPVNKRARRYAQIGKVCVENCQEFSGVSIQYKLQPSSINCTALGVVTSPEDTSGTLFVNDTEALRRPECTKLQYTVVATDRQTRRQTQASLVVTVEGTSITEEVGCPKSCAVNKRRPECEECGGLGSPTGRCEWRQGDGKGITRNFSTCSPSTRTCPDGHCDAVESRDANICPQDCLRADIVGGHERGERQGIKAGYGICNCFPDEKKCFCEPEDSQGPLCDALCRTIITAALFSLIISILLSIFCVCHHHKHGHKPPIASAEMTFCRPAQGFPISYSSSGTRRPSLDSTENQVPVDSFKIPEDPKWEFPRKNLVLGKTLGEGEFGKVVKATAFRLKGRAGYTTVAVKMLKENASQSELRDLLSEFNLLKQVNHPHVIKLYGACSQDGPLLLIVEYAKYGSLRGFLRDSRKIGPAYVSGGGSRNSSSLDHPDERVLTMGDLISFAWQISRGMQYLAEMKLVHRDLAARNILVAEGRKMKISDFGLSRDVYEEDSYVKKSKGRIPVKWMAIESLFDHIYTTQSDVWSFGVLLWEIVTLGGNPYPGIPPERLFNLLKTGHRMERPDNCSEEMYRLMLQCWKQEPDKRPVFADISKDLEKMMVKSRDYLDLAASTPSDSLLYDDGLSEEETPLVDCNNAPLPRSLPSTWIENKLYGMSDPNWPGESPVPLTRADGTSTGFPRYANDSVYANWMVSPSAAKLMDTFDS
Bcr/Abl fusion protein, sequence (P00519 whole entry, the tested form may be a part): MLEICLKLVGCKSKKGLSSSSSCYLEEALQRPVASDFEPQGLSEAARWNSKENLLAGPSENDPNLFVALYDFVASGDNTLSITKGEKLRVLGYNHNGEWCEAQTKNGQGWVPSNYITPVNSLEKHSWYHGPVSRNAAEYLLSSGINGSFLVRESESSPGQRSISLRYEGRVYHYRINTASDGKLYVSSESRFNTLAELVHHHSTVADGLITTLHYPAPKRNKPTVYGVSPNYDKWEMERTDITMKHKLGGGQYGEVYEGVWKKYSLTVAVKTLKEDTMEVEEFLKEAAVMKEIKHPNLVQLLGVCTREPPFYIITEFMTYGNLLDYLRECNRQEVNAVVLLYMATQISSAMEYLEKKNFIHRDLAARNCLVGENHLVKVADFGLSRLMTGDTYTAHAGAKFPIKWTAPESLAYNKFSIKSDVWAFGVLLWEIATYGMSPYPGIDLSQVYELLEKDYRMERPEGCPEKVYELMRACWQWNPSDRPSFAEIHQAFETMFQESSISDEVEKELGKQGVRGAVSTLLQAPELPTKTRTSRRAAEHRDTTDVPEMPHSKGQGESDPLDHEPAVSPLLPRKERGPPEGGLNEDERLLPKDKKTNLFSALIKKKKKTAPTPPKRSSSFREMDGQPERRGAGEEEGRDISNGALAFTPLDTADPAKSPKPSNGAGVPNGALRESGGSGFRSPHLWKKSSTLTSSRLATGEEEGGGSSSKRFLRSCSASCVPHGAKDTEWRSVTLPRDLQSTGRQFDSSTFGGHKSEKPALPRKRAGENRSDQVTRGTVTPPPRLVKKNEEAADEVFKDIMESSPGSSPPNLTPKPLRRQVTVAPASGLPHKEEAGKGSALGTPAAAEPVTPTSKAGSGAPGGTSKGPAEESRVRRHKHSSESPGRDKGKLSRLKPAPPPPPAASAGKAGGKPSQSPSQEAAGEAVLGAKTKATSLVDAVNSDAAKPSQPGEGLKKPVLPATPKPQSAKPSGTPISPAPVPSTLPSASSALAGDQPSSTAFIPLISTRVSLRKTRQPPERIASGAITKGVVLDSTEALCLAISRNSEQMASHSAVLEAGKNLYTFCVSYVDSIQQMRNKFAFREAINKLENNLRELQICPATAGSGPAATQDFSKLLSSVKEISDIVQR
Bcr/Abl fusion protein, sequence (P11274 whole entry, further chain, the tested form may be a part): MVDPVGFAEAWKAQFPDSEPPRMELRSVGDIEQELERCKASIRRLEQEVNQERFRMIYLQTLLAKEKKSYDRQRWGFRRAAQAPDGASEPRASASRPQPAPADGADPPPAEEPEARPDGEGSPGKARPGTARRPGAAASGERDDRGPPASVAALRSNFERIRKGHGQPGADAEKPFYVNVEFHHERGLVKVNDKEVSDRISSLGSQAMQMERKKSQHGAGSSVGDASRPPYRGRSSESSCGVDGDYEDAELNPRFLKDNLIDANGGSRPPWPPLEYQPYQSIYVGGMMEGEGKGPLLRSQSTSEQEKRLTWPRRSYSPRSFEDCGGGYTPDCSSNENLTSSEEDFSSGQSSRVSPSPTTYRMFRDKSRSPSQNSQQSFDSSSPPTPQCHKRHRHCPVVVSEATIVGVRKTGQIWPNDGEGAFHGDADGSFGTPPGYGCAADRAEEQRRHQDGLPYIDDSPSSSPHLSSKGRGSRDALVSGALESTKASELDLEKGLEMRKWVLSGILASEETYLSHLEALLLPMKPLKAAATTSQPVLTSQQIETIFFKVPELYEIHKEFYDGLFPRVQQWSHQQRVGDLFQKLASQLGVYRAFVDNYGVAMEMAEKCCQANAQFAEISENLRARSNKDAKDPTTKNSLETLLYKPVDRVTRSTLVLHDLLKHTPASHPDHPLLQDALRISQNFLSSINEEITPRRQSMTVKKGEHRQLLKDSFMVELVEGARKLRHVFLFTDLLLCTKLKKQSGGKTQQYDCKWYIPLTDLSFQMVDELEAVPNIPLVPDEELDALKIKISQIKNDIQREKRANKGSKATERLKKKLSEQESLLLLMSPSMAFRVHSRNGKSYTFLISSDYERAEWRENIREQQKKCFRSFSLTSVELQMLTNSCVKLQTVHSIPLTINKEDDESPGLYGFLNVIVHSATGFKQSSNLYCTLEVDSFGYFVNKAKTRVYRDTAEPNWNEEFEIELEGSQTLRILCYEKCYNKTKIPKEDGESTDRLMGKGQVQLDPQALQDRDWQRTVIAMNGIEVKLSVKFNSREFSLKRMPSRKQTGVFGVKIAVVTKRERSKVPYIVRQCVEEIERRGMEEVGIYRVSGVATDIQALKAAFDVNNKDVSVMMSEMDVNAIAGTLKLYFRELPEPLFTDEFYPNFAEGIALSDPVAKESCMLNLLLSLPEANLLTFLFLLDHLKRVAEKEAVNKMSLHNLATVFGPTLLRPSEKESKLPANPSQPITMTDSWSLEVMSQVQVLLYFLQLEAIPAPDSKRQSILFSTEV

SMILES	IC50 (BaF3 [1]) [µM]	clearance [2] [mL/min/kg]	fraction unbound at 16 h, 5 µM [10]	Cmax [12] [µM]	half-life [13] [h]	half-life [14] [h]	Cmax [15] [µM]	Vd [16] [L/kg]	bioavailability [17] [%]	AUC [18] [µM·h]	AUC [19] [µM·h]	also measured
CC(=O)N1CCN([C@H]2C[C@@H](n3cc(-c4ccccc4O)c4c(N)ncnc43)C2)CC1	> 10	–	–	–	–	–	–	–	–	–	–	–
CC(=O)N1CCN([C@H]2C[C@@H](n3cc(-c4cccc(O)c4)c4c(N)ncnc43)C2)CC1	> 10	–	–	–	–	–	–	–	–	–	–	–
CC(=O)N1CCN([C@H]2C[C@@H](n3cc(-c4ccc(Cl)c(N)c4)c4c(N)ncnc43)C2)CC1	4.6	15	0.356	5.1	1.2	2.4	3.8	1.3	48	5	12	Activity (BaF3 [3]): Active; inhibition [4]: Active; fCmax [5]: 6.8 µM; Activity [6]: Non-Toxic; fAUC [7]: 41 µM·h; AUC at 336 h [8]: 115 µM·h; Activity [9]: Non-Toxic; Cmax [11]: 19 µM
Nc1ncnc2c1c(-c1cccc(O)c1)cn2C1CCCC1	1.6	–	–	–	–	–	–	–	–	–	–	–
Nc1ncnc2c1c(-c1cccc(O)c1)cn2[C@H]1C[C@@H](CO)C1	–	–	–	–	–	–	–	–	–	–	–	IC50 (Bcr/Abl fusion protein): 0.043 µM
COC(=O)NC12CCC(n3cc(-c4cc(N)c(Cl)cc4F)c4c(N)ncnc43)(CC1)CC2	4.1	1.8	0.0065	3.5	16	19	7.9	2.4	78	40	160	Activity (Mus musculus [20]): Active; Activity (BaF3 [21]): Active; IC50 [22]: 6 µM; IC50 [23]: > 30 µM; fCmax [24]: 0.055 µM; Activity [25]: Non-Toxic; Activity (Mus musculus [26]): Active; fAUC [27]: 0.9 µM·h; Cmax [28]: 8.4 µM; AUC at 336 h [29]: 136 µM·h; inhibition (BaF3 [30]): Active
